Experimental findings from publication PMC10916382, “Repurposing screen identifies novel candidates for broad-spectrum coronavirus antivirals and druggable host targets” (Antimicrobial Agents and Chemotherapy, 2024) are described below.

The structures appear in SMILES notation. Read-outs that look alike come from different tables or passages of the source.

One series deals with HCoV-229E. Description: microbe, parasite or virus in culture. Format: cell-based, Homo sapiens sapiens. The following applies: Human coronavirus 229E, Huh7.5, read-out: IC50 (µM), HCoV 229E.
A short description of series [1]: in vitro. Conditions: human.
A short description of series [2]: in vitro. The following applies: for viability: Anti-SARS-CoV-2 screening on Calu-3 cells: viability [% of control], Calu-3 cells.
The mark [3] stands for this setting: Huh-7.5/F-Luc cells, maximum tested dose 5 µM.
[4] abbreviates: Calu-3 cells, immunofluorescence imaging.

In the case of `COc1cc2c(cc1NS(=O)(=O)c1ccc(-c3ccc(Cl)s3)cc1)CCN(C)CC2` [RFM-010-759-5], in the series with HCoV-229E, the IC50 was determined as 1.73 µM. The “CC50 (µM)” value in the series with Huh-7.5/F-Luc cells (setting [3]) is on record as “greater than maximum tested dose”. Further, the “Anti-SARS-CoV-2 screening on Calu-3 cells: intracellular SARS-CoV-2 infection measured via immunofluorescence imaging [% of control]” value (from here on “Anti-SARS-CoV-2 screening … [% of control]”) in the series on SARS-CoV-2 (setting [4]) is listed as 107.82 % of control. Also, in “in vitro [1]”, the viability at 5 µM amounted to 133%. The viability in the series “in vitro [2]” stood at 92.9%.
The like results for `CCCN(CCC)C(=O)C(Cc1ccc(OCCCN2CCN(C)CC2)cc1)NC(=O)c1ccc(Br)cc1` (centres unmarked) [RFM-012-167-5] were, in that order, 2.36 µM, “greater than maximum tested dose”, 114.35 % of control, 141% and 99.3%.
For `CN(C)CCCN1c2ccccc2Sc2ccc(C(F)(F)F)cc21` [RFM-004-217-1], the IC50 with HCoV-229E turned out to be 1.19 µM. Further, the “CC50 (µM)” value in the series on Huh-7.5/F-Luc cells is given as “greater than maximum tested dose”. For the same compound, in the series on SARS-CoV-2, the “Anti-SARS-CoV-2 screening … [% of control]” value is on record as 110.23 % of control. The viability at 5 µM in “in vitro [1]” is 159%. Further, the viability at 48 h, 5 µM in the series “in vitro [2]” is 72.7%.
Turning to `OC1CCN(CCCN2c3ccccc3Sc3ccc(C(F)(F)F)cc32)C1` (centres unmarked) [RFM-010-589-5], in the series with HCoV-229E, the IC50 came to 1.4 µM. Also, the “CC50 (µM)” value with Huh-7.5/F-Luc cells (setting [3]) is “greater than maximum tested dose”. Also, the “Anti-SARS-CoV-2 screening … [% of control]” value in the series with SARS-CoV-2 (setting [4]) was 102.40 % of control. In “in vitro [1]”, the viability at 5 µM is 146%. In addition, the viability in the series “in vitro [2]” was 110%.
The corresponding values for `Cc1ccc([C@@H](CCNCC2CCCCC2)[C@@H]2CCOC(C)(C)C2)cc1F` [RFM-013-052-9] are 1.8 µM, “greater than maximum tested dose”, 121.52 % of control, 119% and 102%.
Regarding `CCc1ccc2c(c1)N(CC(C)CN(C)C)c1ccccc1S2` (centres unmarked) [RFM-012-636-3], in the series on HCoV-229E, the IC50 came to 1.71 µM. Moreover, the “CC50 (µM)” value with Huh-7.5/F-Luc cells (setting [3]) is reported as “greater than maximum tested dose”. For the same compound, the “Anti-SARS-CoV-2 screening … [% of control]” value with SARS-CoV-2 (setting [4]) was 133.66 % of control. Besides, the viability at 5 µM in “in vitro [1]” is 138%. The viability at 48 h, 5 µM in the series “in vitro [2]” worked out at 108%.
`CC(CN(C)C)CN1c2ccccc2CCc2ccccc21` (centres unmarked) [RFM-008-630-6]: the IC50 in the series with HCoV-229E stood at 1.47 µM. For the same compound, in the series on Huh-7.5/F-Luc cells (setting [3]), the “CC50 (µM)” value is listed as “greater than maximum tested dose”. The “Anti-SARS-CoV-2 screening … [% of control]” value in the series with SARS-CoV-2 (setting [4]) is given as 106.86 % of control. Moreover, the viability at 5 µM in “in vitro [1]” is 145%. Moreover, the viability at 48 h, 5 µM in “in vitro [2]” is 114%.
In the case of `Cn1cc(C2=C(c3c4n(c5ccccc35)CCC(CN)C4)C(=O)NC2=O)c2ccccc21` (centres unmarked) [RFM-009-039-1], the IC50 in the series on HCoV-229E was 1.73 µM. In addition, in the series on Huh-7.5/F-Luc cells (setting [3]), the “CC50 (µM)” value is reported as “greater than maximum tested dose”. The “Anti-SARS-CoV-2 screening … [% of control]” value in the series on SARS-CoV-2 (setting [4]) was 111.69 % of control. Moreover, the viability at 5 µM in the series “in vitro [1]” is 154%. For the same compound, the viability in “in vitro [2]” amounted to 95.9%.
The like results for `CCCCc1oc2ccc(C(=O)OC(C)C)cc2c1C(=O)c1ccc(CCCN(CCCC)CCCC)cc1` [RFM-009-487-1] were, in that order, 1.23 µM, “greater than maximum tested dose”, 97.65 % of control, 122% and 87.8%.
With `COCCN1CCC(N(Cc2ccc(-c3ccc(C(F)(F)F)cc3)cc2)C(=O)c2ccco2)CC1` [RFM-012-120-0], the IC50 in the series with HCoV-229E was determined as 1.61 µM. Besides, in the series with Huh-7.5/F-Luc cells (setting [3]), the “CC50 (µM)” value is on record as “greater than maximum tested dose”. In addition, the “Anti-SARS-CoV-2 screening … [% of control]” value in the series with SARS-CoV-2 (setting [4]) is 87.75 % of control. Further, in “in vitro [1]”, the viability at 5 µM came to 130%. Further, the viability in the series “in vitro [2]” came to 94.4%.

By IC50 is commonly meant the midpoint of a concentration-inhibition curve. One may read the viability as a read-out of living cells in per cent, often relative to untreated cells.
